# Data reported in US9624266B2, “Brachiatin D and process for production thereof” (COUNCIL OF SCIENTIFIC & INDUSTRIAL RESEARCH, priority 2013, dated 2017).
# Where “and” joins values, the source holds several entries; their conditions need not be identical. Identical values can stand only once. Non-standard residues stand in square brackets, D forms with d. Residues, ends and D or L forms follow the SMILES beside them. *: point of attachment. Aib = CC(C)(N)C(=O)O; X1 = CCC(C)C(CO)N*
# Assays:
# [1] = test system: THP-1; assay: cells; type: cell-based, human; details: for % growth inhibition: THP-1, 20 μM, 20 µM
# Experimental: (§1) For Cytotoxic assay, the MTT assay is useful for measuring the effect of a wide range of compounds on the in vitro growth of either normal or cancer cell lines. The assay was set up in a 96-well, flat-bottomed polystyrene microtiter plate. 3-5000 cancer cells were suspended per well in appropriate growth medium, and the cells were added in duplicate wells (triplicates were preferred). It was preferable to add the cells to the required number of wells in the plate prior to adding the peptaibol. After the cells were added to the plate, it was placed on an incubator for overnight incubation. After overnight incubation, the peptaibol was added at defined concentrations of 10, 20 and 50 μM to each set of duplicate wells and incubated for 48 hrs in CO2 incubator. The peptaibol was dissolved in dimethyl sulfoxide (DMSO) for the final addition. After 48 hr incubation, the MTT stock solution (2.5 μg/ml) was diluted with an equal volume of tissue culture medium and 20 μl of this solution was added directly to each well with a multichannel pipette. The plates were returned to the incubator for a period of at least 4 h. After 4 hr incubation, the plates were centrifuged at 1000 rpm for 10 min at ambient temperature, followed by inversion of the plates and blotting of excess medium. 150 μl of working DMSO was added to solubilize the MTT formazan product. A standard micro plate reader with adjustable wavelength across the visible spectrum was used. The OD values at 570 nm obtained for each set of triplicates corresponding to a specific concentration of a peptaibol was then transferred into a spreadsheet program.
# (§2) Cytotoxicity assay was performed on a panel of cancer cell lines using fraction 4 (HF-4) as a test material. In order to determine their effect on cell proliferation, A-549 (lung cell line), HEP-2 (liver cell line), MCF-7 (breast cell line), monkey normal cell line (CV-1), OVCAR-5 (ovary cell line) and THP-1 (leukemia cell line) were treated at indicated concentration of 50 μM for 48 h. […] 5-flurouracil and adriyamycin were used as the positive controls; 5-flurouracil inhibited the growth of lung and leukemia cancer cell lines upto 75% and 83% respectively. Moreover adriyamycin used at 1 μM could inhibit the proliferation of MCF-7 cells upto 73%.
# (§3) Cytotoxicity assay based on MTT was performed on a panel of cancer cell lines using brachiatin D as a test material. […] 5-flurouracil and adriyamycin were used as the positive controls; 5-flurouracil inhibited the growth of lung and leukemia cancer cell lines upto 73%, […] 88% respectively. Adriyamycin used at 1 μM could inhibit the proliferation of MCF-7 cells upto 77%.
# [2] = test system: A-549; assay: cells; type: cell-based, human; details: for % growth inhibition: A-549, 20 μM, 20 µM; for % age growth inhibition: A-549, 10 μM, 10 µM
# Experimental: as §1, §2, §3
# [3] = test system: HOP-62; assay: MTT cytotoxicity assay, HOP-62 lung cell line; type: cell-based, human
# Experimental: as §1, §3
# [4] = test system: MCF-7; assay: MTT cytotoxicity assay, MCF-7 breast cell line; type: cell-based, human; details: for % growth inhibition: MCF-7, 1 μM
# Experimental: as §1
# Cytotoxicity assay was performed on a panel of cancer cell lines using fraction 4 (HF-4) as a test material. In order to determine their effect on cell proliferation, A-549 (lung cell line), HEP-2 (liver cell line), MCF-7 (breast cell line), monkey normal cell line (CV-1), OVCAR-5 (ovary cell line) and THP-1 (leukemia cell line) were treated at indicated concentration of 50 μM for 48 h. […]
# [5] = test system: IL-6; assay: IL-6 in LPS stimulated cell culture supernatant (ELISA); type: cell-based, mouse; details: LPS 1 μg/ml, 24 h
# Experimental: (§4) For the estimation of pro-inflammatory cytokines (TNF-α, IL-1β and IL-6) in spleen cell culture supernatant, the splenocytes (2×10^6 cells) were seeded into a 96-well flat-bottom microtiter plate in 100 μl complete medium [RPMI 1640 supplemented with 12 mM HEPES (pH 7.1), 0.05 mM 2-mercaptoethanol, 100 IU/mL penicillin, 100 μg/mL streptomycin and 10% FCS]. Thereafter, variable does of purified peptaibol (brachiatin D) (0.001, 0.01 and 0.1 μM) were added giving a final volume of 200 μl. After subsequent stimulation with 1 μg/ml LPS for 24 h, the supernatants were harvested. The concentrations of TNF-α, IL-1β and IL-6 in culture supernatants were measured using mouse TNF-α, IL-1β and IL-6 ELISA kits (R&D Systems, USA), as per the instructions of the manufacturer
# as §4, with “For” for “For the”, “medium.” for “medium [RPMI 1640 supplemented with 12 mM HEPES (pH 7.1), 0.05 mM 2-mercaptoethanol, 100 IU/mL penicillin, 100 μg/mL streptomycin and 10% FCS].”, “brachiatin D” for “peptaibol (brachiatin D)”, “manufacturer. […]” for “manufacturer”
# [6] = test system: lymphocyte proliferation; assay: Lymphocyte proliferation assay (splenocytes, MTT); type: cell-based, mice; details: concentration range 0.001 μM-10 μM
# From the text: For Lymphocyte Proliferation Assay, the organic crude extract and then the purified peptaibol was taken for lymphocyte proliferation assay to check their activity by the following procedure. The mice spleen was collected from a live animal after sacrificing it under aseptic conditions in HBSS. The spleen was then minced using a pair of scissors and passed through a fine steel mesh to obtain a homogeneous cell suspension and the erythrocytes were lysed with ammonium chloride (0.8%, w/v). After centrifugation (380×g at 4° C. for 10 min), the pelleted cells were washed three times with PBS and resuspended in complete medium [RPMI 1640 supplemented with 12 mM HEPES (pH 7.1), 0.05 mM 2-mercaptoethanol, 100 IU/mL penicillin, 100 µg/mL streptomycin and 10% FCS]. The cell number was counted with a haemocytometer by the trypan blue dye exclusion technique. Cell viability exceeded 95%.
# Splenocytes (2×10^6 cells) were then seeded into a 96-well flat-bottom microtiter plate in 100 μl complete medium. Thereafter, variable doses of the test material along with LPS (1 μg/ml) to stimulate B cell proliferation were added giving a final volume of 200 μl. Test materials used in this assay were variable doses of the purified peptaibol (0.001, 0.01 and 0.1 μM). […] 200 μl of DMSO (192 μl DMSO with 8 μl IN HCl) was added to each well, and the absorbance was determined in an ELISA reader at 570 nm after 15 min. […]
# [7] = test system: PC-3; assay: MTT cytotoxicity assay, PC-3 prostate cell line; type: cell-based, human; details: PC-3, 10 μM
# Experimental: as §1, with “150 μl of working DMSO was added to solubilize the MTT formazan product.” left out, “The OD values at 570 nm obtained for each set of triplicates corresponding to a specific concentration of a peptaibol was then transferred into a spreadsheet program.” left out
# [8] = test system: NO; assay: Inhibition of nitric oxide (nitrite) in LPS treated macrophages; type: cell-based, mouse
# Experimental: NO is a short-lived molecule. […] Large quantity of nitrite is produced by macrophage when stimulated with LPS. But when cells were treated with brachiatin D, it was observed that brachiatin D inhibited LPS stimulated production of nitrite (p<0.001 at 0.001 μM dose).
# [9] = test system: MiaPaCa-2; assay: MTT cytotoxicity assay, MiaPaCa-2 pancreatic cell line; type: cell-based, human; details: MiaPaCa-2, 10 μM
# Experimental: as §1, with “150 μl of working DMSO was added to solubilize the MTT formazan product.” left out, “The OD values at 570 nm obtained for each set of triplicates corresponding to a specific concentration of a peptaibol was then transferred into a spreadsheet program.” left out
# [10] = test system: TNF-α; assay: TNF-α in LPS stimulated cell culture supernatant (ELISA); type: cell-based, mouse; details: LPS 1 μg/ml, 24 h, dose dependent, 0.001-0.1 dose range
# Experimental: as §4
# as §4, with “For” for “For the”, “medium.” for “medium [RPMI 1640 supplemented with 12 mM HEPES (pH 7.1), 0.05 mM 2-mercaptoethanol, 100 IU/mL penicillin, 100 μg/mL streptomycin and 10% FCS].”, “brachiatin D” for “peptaibol (brachiatin D)”, “manufacturer. […]” for “manufacturer”
# [11] = test system: IL-1β; assay: IL-1β in LPS stimulated cell culture supernatant (ELISA); type: cell-based, mouse; details: LPS 1 μg/ml, 24 h
# Experimental: as §4
# as §4, with “For” for “For the”, “medium.” for “medium [RPMI 1640 supplemented with 12 mM HEPES (pH 7.1), 0.05 mM 2-mercaptoethanol, 100 IU/mL penicillin, 100 μg/mL streptomycin and 10% FCS].”, “brachiatin D” for “peptaibol (brachiatin D)”, “manufacturer. […]” for “manufacturer”
compound,measurement,setting,value
"O=c1[nH]cc(F)c(=O)[nH]1 [5-Fluorouracil, reference compound]",inhibition at 20 µM,"[1]; Homo sapiens, THP-1, THP-1, 20 μM, read-out: % growth inhibition",≤ 83%
same,% growth inhibition,[1],83% and 88%
same,% growth inhibition,[2],75% and 73%
same,inhibition at 20 µM,"[2]; Homo sapiens, A549, A-549, 20 μM, read-out: % growth inhibition",≤ 75%
same,% age growth inhibition,"[3]; HOP-62, 20 μM, 20 µM",81%
same,inhibition at 20 µM,"[3]; Homo sapiens, HOP-62, HOP-62, 20 μM, read-out: % age growth inhibition",≤ 81%
COc1cccc2c1C(=O)c1c(O)c3c(c(O)c1C2=O)C[C@@](O)(C(=O)CO)C[C@@H]3O[C@H]1C[C@H](N)[C@H](O)[C@H](C)O1 [Adriyamycin],% growth inhibition,[4],73%
same,% growth inhibition,[4]; 1 µM,≤ 73%
"CCC(C)C(CO)NC(=O)C1CCCN1C(=O)C(CC(C)C)NC(=O)C(CC(N)=O)NC(=O)C(C)(C)NC(=O)C1CCCN1C(=O)C(C)(C)NC(=O)C(CC(C)C)NC(=O)C(C)(C)NC(=O)C(CC(N)=O)NC(=O)C(C)(C)NC(C)=O (stereo not drawn) [Brachiatin D, AcAib-Asn-Aib-Leu-Aib-Pro-Aib-Asn-Leu-Pro-Ileuol] (Ac-[Aib]N[Aib]L[Aib]P[Aib]NLP-X1; configuration not given here)",effect on LPS induced IL-6,[5],inhibited
same,activity against lymphocyte proliferation,[6],good activity
same,% age growth inhibition,[7],100%
same,LPS stimulated production of nitrite,"[8]; 0.001 μM dose, p<0.001",inhibited
same,NO production,"[8]; 0.1 μM, p<0.05",Marginal increase
same,% age growth inhibition,"[1]; THP-1, 10 μM",56%
same,% growth inhibition,[1],77%
same,% growth inhibition,[1]; listed as brachiatin D,> 75%
same,% age growth inhibition,[2],63%
same,% age growth inhibition,[2]; listed as brachiatin D,≤ 63%
same,% growth inhibition,[2],96%
same,% growth inhibition,[2]; listed as brachiatin D,> 95%
same,sensitivity of the cell line to cytotoxic effects,[3]; HOP-62,much resistance
same,% age growth inhibition,"[3]; HOP-62, 10 μM",21%
same,% age growth inhibition,"[3]; HOP-62, 20 μM",35%
same,% age growth inhibition,[9],100%
same,% age growth inhibition,"[4]; MCF-7, 10 μM",100%
same,inhibition of TNF-α production,[10],up to 42%
same,effect on LPS induced IL-1β,[11],inhibited
